Molecular target: T1, GPR3 (Homo sapiens, UniProt P46089)
T1 construct: host or cells: HEK293A, transient
Experiment: cAMP GloSensor 22F, GPR3-transfected HEK293A cells
Format: cell-based
Settings: read-out: EC50 of cAMP decrease in GPR3-expressing cells
Excerpt: Next, we used the classical cAMP GloSensor technology to assess the target selectivity profile of 33. […] In addition, we tested the effects of 33 on cAMP changes mediated by agonist-stimulated GPCRs phylogenetically close to GPR3 and coupling to Gs or Gi/o proteins. […]
conditioning and no constraints were applied. The poses were visually inspected and the most favorable one that coincides with the co-solved ligand according to the available structures was chosen.
Plasmids and molecular cloning
The H187-EPAC-FRET sensor7 was kindly provided by K. Jalink (The Netherlands Cancer Institute, Amsterdam, The Nether-lands). The BRET-based cAMP sensor CAMYEL8 was kindly provided by Laura Humphrys (University of Regensburg, Regens-burg, Germany). Plasmids encoding the conformational biosensors α2AAR- and β2AR-HaloTag/Nluc9 and the Gs heterotrimer dissociation sensor10 were previously described. The expression plasmid encoding N-terminally HA-tagged GPR3 (cat. no.
#GPR003TN00) on a pcDNA3.1+ vector was obtained from the cDNA resource center (cdna.org). The Nluc and HaloTag in-serts were amplified with overhanging restriction sites from β2AAR- HaloTag/Nluc and ligated to the full-length C-terminus or inserted into icl3 of GPR3, respectively, to obtain the conformational biosensor GPR3-HaloTag/Nluc. […]

T1 sequence (P46089 whole entry): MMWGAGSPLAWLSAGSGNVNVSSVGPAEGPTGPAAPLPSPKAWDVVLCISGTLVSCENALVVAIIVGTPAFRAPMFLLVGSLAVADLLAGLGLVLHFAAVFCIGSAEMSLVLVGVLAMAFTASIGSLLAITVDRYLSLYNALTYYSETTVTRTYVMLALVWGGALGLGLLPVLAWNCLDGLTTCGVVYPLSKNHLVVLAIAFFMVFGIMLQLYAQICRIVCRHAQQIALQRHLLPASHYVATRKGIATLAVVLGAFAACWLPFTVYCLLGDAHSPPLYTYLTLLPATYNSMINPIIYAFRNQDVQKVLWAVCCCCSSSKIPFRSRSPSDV

- EC50: 2000 nM
SMILES: N=c1n(Cc2ccccc2)c2ccccc2n1CC1CC1 [compound 33]

Source: paper PMC13195669, “GPR3 Ligands Discovered through Combined Virtual and Conformational Biosensor-Based Screening” (Journal of the American Chemical Society, 2026)
